The test system of data set [1] is peripheral blood-derived monocytes. The data set is described as follows: MTT cytotoxicity assay with monocytes. It counts as cell-based, human. To be noted: lower concentrations (less than 30 µM); MTT and LDH assays, Figure S3. On the procedure:
Human primary leukocytes were isolated from peripheral blood of healthy adult volunteers provided by the Institute of Transfusion Medicine at the University Hospital Greifswald as described before. All methods were performed in accordance with the Declaration of Helsinki. […] The remaining erythrocytes were removed by hypotonic lysis using water, and resulting polymorphonuclear neutrophils (PMNs) were resuspended in PBS containing 0.1% (w/v) glucose (PG buffer) or PG buffer with 1 mM CaCl2 (PGC buffer) as indicated.
Then, cells were incubated with 5 mg/mL MTT in PBS until the blue staining of the vehicle-containing control cells. Formazan formation was stopped by 100 µL of 10% (w/v in 20 mM HCl) SDS lysis buffer and followed by shaking overnight. Finally, absorbance was measured at 570 nm with a SpectraMax® i3x multi-mode detection platform (Molecular Devices, San Jose, CA, USA). The pan-protein kinase inhibitor staurosporine (1 µM) was used as a cytotoxic control inhibitor.

Data set [2] concerns the target T1, LTA4H (Homo sapiens, UniProt P09960).
T1 sequence (P09960 1-611): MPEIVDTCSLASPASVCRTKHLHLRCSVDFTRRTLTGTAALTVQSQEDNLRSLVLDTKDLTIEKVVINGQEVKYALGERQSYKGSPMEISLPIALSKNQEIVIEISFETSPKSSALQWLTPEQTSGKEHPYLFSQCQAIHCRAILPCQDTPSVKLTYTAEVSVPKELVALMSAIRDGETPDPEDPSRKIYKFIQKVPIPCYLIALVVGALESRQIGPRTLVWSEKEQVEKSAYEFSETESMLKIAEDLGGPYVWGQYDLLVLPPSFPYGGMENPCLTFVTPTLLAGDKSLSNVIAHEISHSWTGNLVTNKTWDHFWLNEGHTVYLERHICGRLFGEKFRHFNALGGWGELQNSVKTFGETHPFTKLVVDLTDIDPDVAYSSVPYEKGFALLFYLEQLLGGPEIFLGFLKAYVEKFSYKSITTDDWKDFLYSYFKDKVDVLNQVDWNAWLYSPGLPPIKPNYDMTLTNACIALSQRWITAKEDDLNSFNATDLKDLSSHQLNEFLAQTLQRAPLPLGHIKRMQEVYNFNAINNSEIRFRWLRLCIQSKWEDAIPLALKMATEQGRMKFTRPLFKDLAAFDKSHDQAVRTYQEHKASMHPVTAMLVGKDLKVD
Put plainly: Thermal shift assay with differential scanning fluorimetry. It counts as binding. On the set-up: made in house; host or cells: Escherichia coli JM101. Conditions: for Tm of LTA4H upon the addition of inhibitor: 0 to 200 µM inhibitor, increased from 57.5 °C without inhibitor. As to the method: DSF, also known as the thermal shift assay, was carried out in 25 mM Tris-HCl pH 7.8 containing 50 ng/µL LTA4H, 2X SYPRO Orange (Life Technologies, Carlsbad, CA, USA), 3% DMSO or 0–300 µM of an inhibitor. The assay was performed in a white 96-well Multiplate PCR Plate (Bio-Rad, Hercules, CA, USA) covered with the iCycler iQ Optical tape (Bio-Rad, Hercules, CA, USA). The total volume per well was 25 μL, consisting of 1 μL SYPRO Orange solution. Relative fluorescence intensities (RFU) were recorded with a C1000 Touch Thermal Cycler (Bio-Rad, Hercules, CA, USA) and a CFX-96 Real-Time System. […] The melting temperature (Tm) for each condition were obtained from the first derivative of melting curves and the affinity (Kd) and stability (Kb) values were calculated based on the Tm and concentration–response curves.
Background: Differential scanning fluorimetry follows unfolding on heating by fluorescence.

Data set [3] has as its target T1, LTA4H. The data set is described as follows: Isothermal titration calorimetry with LTA4H. Details: made in house; host or cells: Escherichia coli JM101. Type of data set: binding. To be noted: 25 mM Tris pH 7.8, 3% DMSO, 25 °C. As to the method: ITC was performed with an iTC200 calorimeter (MicroCal Inc., Northampton, MA, USA) equipped with a […] sample cell. Measurements were performed in 25 mM Tris-HCl pH 7.8 supplemented with 3% DMSO at 25 °C. […] After the ITC system was equilibrated, the initial injection of an inhibitor was performed in 0.5–1.0 µL followed by 15 injections in 2.5 µL. The time between each injection was 1.5–3.0 min to ensure the complete equilibration of the system. Collected data were analyzed by MicroCal PEAK-ITC Analysis Software. Control experiments were performed with identical conditions using only inhibitor, protein or buffer with 3% DMSO.

Where [4] appears, read: from Tm concentration–response curves, read-out: Kd by differential scanning fluorimetry.
[5] abbreviates: mean ± SEM, n = 4, read-out: dissociation constant (Kd) by ITC.
The mark [6] stands for this setting: read-out: dissociation constant (Kd) by ITC.

Each structure is given as a SMILES string.

For `Nc1nc(-c2ccc(Cc3ccccc3)cc2)co1` [TTO, 4-(4-benzylphenyl) oxazol-2-amine], in data set [1], the “safety in human leukocytes (cytotoxicity assays)” value (from here on “safety in human leukocytes”) is given as “safe”. For the same compound, the “Tm of LTA4H upon the addition of inhibitor” value (shortened to “Tm … of inhibitor”) on LTA4H [2] was 60.7 °C. The equilibrium dissociation constant (Kd) – broadly, the concentration at which binding is half-saturated – on LTA4H [2] (setting [4]) was found to be 0.51 ± 0.04 µM; on LTA4H [3] (setting [5]), 0.326 ± 0.0294 µM; at LTA4H [3] (setting [6]), 0.33 µM.

For the compound `Nc1nc(-c2ccc(Cc3ccccc3)cc2)cs1` [ARM1, 4-(4-benzylphenyl) thiazol-2-amine, reference compound], the “safety in human leukocytes” value in data set [1] is “safe”. Also, at LTA4H [2], the “Tm … of inhibitor” value came out at 61.2 °C. Further, the dissociation constant Kd on LTA4H [2] (setting [4]) was 0.24 ± 0.01 µM; on LTA4H [3] (setting [5]), 0.248 ± 0.0532 µM; on LTA4H [3] (setting [6]) it was 0.25 µM.

Turning to `Nc1nc(-c2ccc(Cc3ccccc3)cc2)c[se]1` [TTSe, 4-(4-benzylphenyl) selenazol-2-amine], in data set [1], the “safety in human leukocytes” value is recorded as “safe”. Besides, the equilibrium dissociation constant (Kd) on LTA4H [2] was 0.3 ± 0.02 µM; at LTA4H [3] (dissociation constant (Kd) by ITC) it was 0.37 µM; at LTA4H [3] (dissociation constant (Kd) by ITC, mean ± SEM, n = 4) it was 0.367 ± 0.0107 µM. Also, the “Tm … of inhibitor” value at LTA4H [2] was determined as 61.9 °C.

These data come from paper PMC10145651, “Modulation of the 5-Lipoxygenase Pathway by Chalcogen-Containing Inhibitors of Leukotriene A4 Hydrolase” (International Journal of Molecular Sciences, 2023).
